“And” between values parts separate entries of the source, which are not always exact repeats. Identical values can stand only once. “Also recorded” adds a separate entry of the source. Like-named read-outs stand apart in the source and are kept apart here.
How the values were obtained:
[1] = test system: AM (RA-treated hiPS-CMs, atrial-like); assay: High-throughput membrane potential recording (FluoVolt, FDSS/μCell) in AM; type: cell-based, human; details: for rising slope of membrane potential (in words): concentration range as stated in the source; for cessation of beating (cases): count of cases
Protocol: (§1) Using a high-throughput screening system (FDSS/μCell), we assessed the drug toxicity of several experimental drugs on hiPS-derived atrial myocytes as well as control hiPS-derived cardiomyocytes. Membrane potential was used as one of the parameters during the assessment.
(§2) After purification, hiPS-derived cardiomyocytes were plated in 96-well plates for downstream drug response assessment using FluoVolt™ Membrane Potential Kit. […] The comparison of variance in the response of drug administration in CT and AM was represented by the percentage of changes based on their baseline values respectively.
(§3) FluoVolt™ Membrane Potential Kit (ThermoFisher […], F10488, Massachusetts, United States) was used to measure membrane potentials. The basic procedure was performed in accordance with the manufacturer’s instructions. […] MP were recorded at excitation and emission stages at wavelengths of 470 and 540 nm, respectively. […] Stock solutions of the test compounds were prepared in 100% DMSO, and serially diluted 1/40 into compound plates for testing (0.5% DMSO was the maximum concentration in all wells). The compounds were automatically pipetted from the compound plate, and 12 μL was loaded in the wells already containing the cells with 48 μL of media. Recording data were analyzed using Waveform Analysis of Cardiomyocyte Software (Ver.1.2.1J, Hamamatsu Photonics K.K.). Data values for a well were averaged from waveforms that arose during 30 s. The beat rate (BR; beats per minute), waveform amplitude (AMP), and duration at 30, 50, and 80% of decay (PWD30, PWD 50, and PWD 80, respectively) were used as evaluation parameters. PWDs were corrected using the Fridericia formula. PWD30-80 was calculated as the difference between PWD80 and PWD30. Each parameter was calculated as percentage change (%) from the value before test compound addition.

[2] = test system: CT (control hiPS-CMs without RA, ventricular-like); assay: High-throughput membrane potential recording (FluoVolt, FDSS/μCell) in CT; type: cell-based, human; details: for Falling Slope / Rising Slope / PWD30cF / PWD80cF: % change from value before compound addition, 10 min after addition (Bay K 8644: 3 min)
Protocol: as §1, §2, §3

[3] = test system: cardiac Na+ channel (Nav1.5); details: cited from earlier work
Cav1.2 current = test system: Cav1.2 current; set-up: method as in Kramer et al., (2013), Harmer et al., (2011); details: ref Kramer et al., (2013), Harmer et al., (2011); cited from earlier work
[4] = test system: ventricular myocytes of guinea pigs; set-up: method as in Delaunois et al., 2015; details: 75 μM; ref Delaunois et al., 2015; cited from earlier work
human atrial myocytes = test system: human atrial myocytes; set-up: method as in Lagrutta et al., 2006; details: ref Lagrutta et al., 2006; cited from earlier work
[5] = test system: ventricular function and porcine ventricular myocytes; set-up: method as in Knobloch et al., 2002; details: ref Knobloch et al., 2002; cited from earlier work
atrial refractory period = test system: atrial refractory period; set-up: method as in Knobloch et al., 2002; details: ref Knobloch et al., 2002; cited from earlier work
[6] = % change from value before compound addition, 10 min after addition (Bay K 8644: 3 min)
[7] = concentration range as stated in the source

| SMILES | incidence of arrhythmia-like waveforms: arrest ([1]; 10 μM) [%] | incidence of arrhythmia-like waveforms: arrest ([1]; 30 μM) [%] | incidence of arrhythmia-like waveforms: arrest ([1]; 100 μM) [%] | Rising Slope [1, 6] | rising slope of membrane potential (in words) [1] | concentration at which cessation of beating was elicited [2] | membrane potential duration (in words) [2] | incidence of arrhythmia-like waveforms: arrest ([2]; 30 μM) [%] | incidence of arrhythmia-like waveforms: arrest ([2]; 100 μM) [%] | Falling Slope [2] | Rising Slope [2] | falling slope of membrane potential (in words) [2, 7] | rising slope of membrane potential (in words) [2, 7] | amplitude of membrane potential (in words) [2] | PWD30cF [2] | PWD80cF [2] | PWD30cF (in words) [1] | PWD50cF (in words) [1] | PWD30cF [1, 6] | also measured |
| --- | --- | --- | --- | --- | --- | --- | --- | --- | --- | --- | --- | --- | --- | --- | --- | --- | --- | --- | --- | --- |
| O=C1NC(=O)C(c2ccccc2)(c2ccccc2)N1 [Phenytoin] | 50 | 67 | 100 | ↓ | dose-dependent decrease | higher than 30 μM | slight shortening | 83 | 100 | ↑ | ↓ | increase | dose-dependent decrease | – | – | – | – | – | – | IC50 ([3]; ref Kramer et al., (2013), Harmer et al., (2011), read-out: IC50 cardiac Nav1.5 current): 72.4 µM and 121 µM; IC50 (Cav1.2 current): 21.9 µM |
| NC(=O)N1c2ccccc2C=Cc2ccccc21 [Carbamazepine] | – | 50 | 83 | ↓ | decrease | above 30 μM | shortened | 8 | 92 | ↑ | ↓ | increase | decrease | decrease | ↓ | ↓ | – | – | – | other parameters of membrane potential (in words) [1]: no obvious change was observed; cessation of beating (cases) ([1]; 30 μM): half the cases; cessation of beating (cases) ([1]; 100 μM): 5 of 6; concentration at which irregular beating or EAD appeared [2]: above 30 μM; incidence of arrhythmia-like waveforms: irregular beat ([2]; 30 μM): 25%; incidence of arrhythmia-like waveforms: irregular beat ([2]; 100 μM): 8%; cessation of beating (cases) ([2]; 100 μM, count of cases): 11 of 12; beating rate (in words) [2, 7]: decrease; IC50 ([3]; ref Harmer et al., 2011, read-out: IC50 cardiac Na+ channel (Nav1.5)): 152 µM; APD50 [4]: shortening; APD90 [4]: shortening; Vmax [4]: decrease |
| CC(C)[C@@H]1CC[C@@H](C)C[C@@H]1P(=O)(c1ccccc1)c1ccccc1 [DPO-1] | – | – | – | – | – | – | – | – | – | – | – | – | – | – | – | – | dose-dependent increases; also recorded: prolongation | dose-dependent increases; also recorded: prolongation | ↑ | action potentials in human atrial myocytes (human atrial myocytes): prolongation of action potentials |
| O=C(NCc1ccccc1-c1ccccc1C(=O)NCCc1ccccn1)OCc1ccccc1 [S9947] | 100 | – | – | – | – | – | – | – | – | ↑ | ↓ | – | – | decrease | ↓ | ↓ | prolongation | prolongation | ↑ | membrane potential duration (in words) [1]: dose-dependent increase; cessation of beating / arrest (cases) ([1]; 10 μM, count of wells): All; PWD80cF [1, 6]: ↑; ventricular function and porcine ventricular myocytes [5]: did not affect; incidence of arrhythmia-like waveforms: arrest ([2]; 10 μM): 50%; cessation of beating / arrest (cases) ([2]; 10 μM, count of cases): half; atrial refractory period (atrial refractory period): prolonged |

Reference: PMC8369502, “High-Throughput Drug Screening System Based on Human Induced Pluripotent Stem Cell-Derived Atrial Myocytes ∼ A Novel Platform to Detect Cardiac Toxicity for Atrial Arrhythmias” (Frontiers in Pharmacology, 2021)
